Measured values as given in the supplement of paper PMC10307832.

Tests used:
Test in all cases: relative viability (nuclei count vs DMSO), 5 days (fraction); higher = more cells survive
[1] = compound: O=C(NC1CCNCC1)c1n[nH]cc1NC(=O)c1c(Cl)cccc1Cl [AT-7519] + CCNC(=O)c1noc(-c2cc(C(C)C)c(O)cc2O)c1-c1ccc(CN2CCOCC2)cc1 [Luminespib] (partner 0.01 µM)
In short: (§1)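 Cells from lung cancer lines were seeded into 1536-well plates and, one day later, dosed by pin tool. Treatments were either a single drug or a fixed dose of an anchor drug with five library-drug doses (not always all listed) in √10 steps. After 5 days, nuclei were stained in a one-step fixation (final 0.05% Triton X-100, 1% formaldehyde, 1 ug/ml Hoechst) and counted on 4× images, and relative viability is the treated-to-vehicle nuclei ratio, as the median of duplicate plates.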

[2] = compound: C1=CC2=C(C=C(C(=C2N=C1)O)N=NC3=CC4=C(C=C3)C=C(C=C4)S(=O)(=O)O)S(=O)(=O)O + Nc1ncn([C@H]2C[C@H](O)[C@@H](CO)O2)c(=O)n1 [Decitabine] (partner 2 µM)
In short: as §1

[3] = compound: C1=CC2=C(C=C(C(=C2N=C1)O)N=NC3=CC4=C(C=C3)C=C(C=C4)S(=O)(=O)O)S(=O)(=O)O + CC(C)C[C@H](NC(=O)[C@H](Cc1ccccc1)NC(=O)c1cnccn1)B(O)O [Bortezomib] (partner 0.002 µM)
In short: as §1

[4] = compound: O=C(NC1CCNCC1)c1n[nH]cc1NC(=O)c1c(Cl)cccc1Cl [AT-7519] + Cc1nc(Nc2ncc(C(=O)Nc3c(C)cccc3Cl)s2)cc(N2CCN(CCO)CC2)n1 [Dasatinib] (partner 0.075 µM)
In short: as §1

Cell Line: HCC-44
- relative viability ([1]; first compound 0.01 µM): 1.13
- relative viability ([1]; first compound 0.03162 µM): 1.03
- relative viability ([1]; first compound 0.3162 µM): 0.636
- relative viability ([1]; first compound 1 µM): 0.235
- relative viability ([2]; first compound 0.08 µM): 0.935
- relative viability ([2]; first compound 0.253 µM): 0.932
- relative viability ([2]; first compound 0.8 µM): 0.93
- relative viability ([2]; first compound 2.53 µM): 1.04
- relative viability ([2]; first compound 8 µM): 0.949
- relative viability ([3]; first compound 0.08 µM): 0.903
- relative viability ([3]; first compound 0.253 µM): 0.835
- relative viability ([3]; first compound 0.8 µM): 0.931
- relative viability ([3]; first compound 2.53 µM): 0.905
- relative viability ([3]; first compound 8 µM): 0.9

Cell Line: HCC-78
- relative viability ([4]; first compound 0.01 µM): 0.368
- relative viability ([4]; first compound 0.03162 µM): 0.397
- relative viability ([4]; first compound 0.3162 µM): 0.335
- relative viability ([4]; first compound 1 µM): 0.364
- relative viability ([2]; first compound 0.08 µM): 0.796
- relative viability ([2]; first compound 0.253 µM): 0.671
- relative viability ([2]; first compound 0.8 µM): 0.756
- relative viability ([2]; first compound 2.53 µM): 0.708
- relative viability ([2]; first compound 8 µM): 0.589
- relative viability ([3]; first compound 0.08 µM): 0.513
- relative viability ([3]; first compound 0.253 µM): 0.469
- relative viability ([3]; first compound 0.8 µM): 0.475
- relative viability ([3]; first compound 2.53 µM): 0.417
- relative viability ([3]; first compound 8 µM): 0.526

Cell Line: HCC-366
- relative viability ([4]; first compound 0.01 µM): 0.729
- relative viability ([4]; first compound 0.03162 µM): 0.571
- relative viability ([4]; first compound 0.3162 µM): 0.435
- relative viability ([4]; first compound 1 µM): 0.308
- relative viability ([2]; first compound 0.08 µM): 0.299
- relative viability ([2]; first compound 0.253 µM): 0.307
- relative viability ([2]; first compound 0.8 µM): 0.347
- relative viability ([2]; first compound 2.53 µM): 0.357
- relative viability ([2]; first compound 8 µM): 0.358
- relative viability ([3]; first compound 0.08 µM): 1.03
- relative viability ([3]; first compound 0.253 µM): 1.03
- relative viability ([3]; first compound 0.8 µM): 1.02
- relative viability ([3]; first compound 2.53 µM): 1.13
- relative viability ([3]; first compound 8 µM): 0.985

Cell Line: HCC-827
- relative viability ([4]; first compound 0.01 µM): 0.299
- relative viability ([4]; first compound 0.03162 µM): 0.298
- relative viability ([4]; first compound 0.3162 µM): 0.207
- relative viability ([4]; first compound 1 µM): 0.249
- relative viability ([1]; first compound 0.01 µM): 0.603
- relative viability ([1]; first compound 0.03162 µM): 0.61
- relative viability ([1]; first compound 0.3162 µM): 0.566
- relative viability ([1]; first compound 1 µM): 0.334
- relative viability ([2]; first compound 0.08 µM): 0.402
- relative viability ([2]; first compound 0.253 µM): 0.311
- relative viability ([2]; first compound 0.8 µM): 0.297
- relative viability ([2]; first compound 2.53 µM): 0.342
- relative viability ([2]; first compound 8 µM): 0.306
- relative viability ([3]; first compound 0.08 µM): 1.06
- relative viability ([3]; first compound 0.253 µM): 0.95
- relative viability ([3]; first compound 0.8 µM): 0.948
- relative viability ([3]; first compound 2.53 µM): 1.02
- relative viability ([3]; first compound 8 µM): 1.03

Cell Line: HOP-62
- relative viability ([4]; first compound 0.01 µM): 0.653
- relative viability ([4]; first compound 0.03162 µM): 0.699
- relative viability ([4]; first compound 0.3162 µM): 0.731
- relative viability ([4]; first compound 1 µM): 0.626
- relative viability ([1]; first compound 0.01 µM): 1.02
- relative viability ([1]; first compound 0.03162 µM): 0.916
- relative viability ([1]; first compound 0.3162 µM): 0.993
- relative viability ([1]; first compound 1 µM): 0.859
- relative viability ([2]; first compound 0.08 µM): 0.186
- relative viability ([2]; first compound 0.253 µM): 0.206
- relative viability ([2]; first compound 0.8 µM): 0.24
- relative viability ([2]; first compound 2.53 µM): 0.254
- relative viability ([2]; first compound 8 µM): 0.228
- relative viability ([3]; first compound 0.08 µM): 0.714
- relative viability ([3]; first compound 0.253 µM): 0.558
- relative viability ([3]; first compound 0.8 µM): 0.851
- relative viability ([3]; first compound 2.53 µM): 0.725
- relative viability ([3]; first compound 8 µM): 0.637

Cell Line: IA-LM
- relative viability ([3]; first compound 0.08 µM): 0.93
- relative viability ([3]; first compound 0.253 µM): 0.843
- relative viability ([3]; first compound 0.8 µM): 0.803
- relative viability ([3]; first compound 2.53 µM): 0.819
- relative viability ([3]; first compound 8 µM): 0.923

Cell Line: LK-2
- relative viability ([4]; first compound 0.01 µM): 0.288
- relative viability ([4]; first compound 0.03162 µM): 0.248
- relative viability ([4]; first compound 1 µM): 0.221
- relative viability ([1]; first compound 0.01 µM): 0.188
- relative viability ([1]; first compound 0.03162 µM): 0.159
- relative viability ([1]; first compound 1 µM): 0.189
- relative viability ([2]; first compound 0.08 µM): 0.417
- relative viability ([2]; first compound 0.253 µM): 0.254
- relative viability ([2]; first compound 0.8 µM): 0.201
- relative viability ([2]; first compound 2.53 µM): 0.384
- relative viability ([2]; first compound 8 µM): 0.296

Cell Line: NCI-H358
- relative viability ([4]; first compound 0.01 µM): 0.15
- relative viability ([4]; first compound 0.03162 µM): 0.163
- relative viability ([4]; first compound 0.3162 µM): 0.161
- relative viability ([4]; first compound 1 µM): 0.119
- relative viability ([1]; first compound 0.01 µM): 0.326
- relative viability ([1]; first compound 0.03162 µM): 0.267
- relative viability ([1]; first compound 0.3162 µM): 0.24
- relative viability ([1]; first compound 1 µM): 0.224
- relative viability ([2]; first compound 0.08 µM): 0.245
- relative viability ([2]; first compound 0.253 µM): 0.216
- relative viability ([2]; first compound 0.8 µM): 0.218
- relative viability ([2]; first compound 2.53 µM): 0.203
- relative viability ([2]; first compound 8 µM): 0.132

Cell Line: NCI-H522
- relative viability ([4]; first compound 0.03162 µM): 0.864
- relative viability ([4]; first compound 0.3162 µM): 0.841
- relative viability ([4]; first compound 1 µM): 0.956
- relative viability ([1]; first compound 0.01 µM): 1.01
- relative viability ([1]; first compound 0.03162 µM): 1.07
- relative viability ([1]; first compound 0.3162 µM): 1.31
- relative viability ([1]; first compound 1 µM): 0.959
- relative viability ([2]; first compound 0.08 µM): 0.561
- relative viability ([2]; first compound 0.253 µM): 0.644
- relative viability ([2]; first compound 0.8 µM): 0.689
- relative viability ([2]; first compound 2.53 µM): 0.683
- relative viability ([2]; first compound 8 µM): 0.6

Cell Line: NCI-H1299
- relative viability ([3]; first compound 0.08 µM): 1.06
- relative viability ([3]; first compound 0.253 µM): 0.99
- relative viability ([3]; first compound 0.8 µM): 0.999
- relative viability ([3]; first compound 2.53 µM): 1.02
- relative viability ([3]; first compound 8 µM): 1.03
